Values joined by “and” are separate entries in the source; they are usually repeats but may differ in a detail not shown here. Equal values may be shown once.
Tests used:
Assay type in all cases: in vivo
[1] = test system: Canada thistle; experiment: Pre-emergent herbicidal activity (Table A); details: Cirsium arvense, pre-emergence, Cath, 11.2 kg/ha, 10-14 days, read-out: herbicidal rating (% inhibition)
In short: (§1)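 Percent inhibition per species, scored on a rating scale, after pre-emergent soil incorporation: test compound in acetone or water carrier mixed into cover soil, layered over seeded topsoil or vegetative propagules.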

[2] = test system: Common Lambsquarters; experiment: Pre-emergent herbicidal activity (Table A); details: Chenopodium album, pre-emergence, Colq, 11.2 kg/ha, 10-14 days, read-out: herbicidal rating (% inhibition)
In short: as §1

[3] = test system: Pennsylvania Smartweed; experiment: Pre-emergent herbicidal activity (Table A); details: pre-emergence, Pesw, 11.2 kg/ha, 10-14 days, read-out: herbicidal rating (% inhibition)
In short: as §1

[4] = test system: Quackgrass; experiment: Pre-emergent herbicidal activity (Table A); details: pre-emergence, Rhqg, 11.2 kg/ha, 10-14 days, read-out: herbicidal rating (% inhibition)
In short: as §1

[5] = test system: Rhizome Johnsongrass; experiment: Pre-emergent herbicidal activity (Table A); details: Sorghum halepense, pre-emergence, Rhjg, 11.2 kg/ha, 10-14 days, read-out: herbicidal rating (% inhibition)
In short: as §1

[6] = test system: Colq; experiment: plant injury after spraying emerged plants (Table D); parameters: scale not given here
In short: (§2)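 Greenhouse post-emergence test: plants grown in silt loam (some with fertilizer) to 1–3 true leaf stage (9–14 days), sprayed at 170.3 kPa with emulsifier-containing solution at 1870 L/Ha delivering stated rates. Injury versus unsprayed controls scored after ~10–14 days (usually 11).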

[7] = test system: Pesw; experiment: as above; parameters: scale not given here
In short: as §2

[8] = test system: Sube; experiment: as above; parameters: scale not given here
In short: as §2

[9] = test system: Cocw; experiment: as above; parameters: scale not given here
In short: as §2

SMILES | inhibition at 11200 g/ha [1] | inhibition at 11200 g/ha [2] | inhibition at 11200 g/ha [3] | inhibition at 11200 g/ha [4] | inhibition at 11200 g/ha [5] | plant injury rating, Cocw ([9]; 0.2803 kg/ha) | plant injury rating, Cocw ([9]; 5.6050 kg/ha) | plant injury rating, Cocw ([9]; 1.1210 kg/ha) | other results
COC(=O)c1c(O)nc(C(F)(F)F)c(C(=O)OC)c1CC(C)C [Compound 1, 3,5-pyridinedicarboxylic acid, 2-hydroxy-4-(2-methylpropyl)-6-(trifluoromethyl)-, dimethyl ester] | 0 to 24% | 0 to 24% | 0 to 24% | 0 to 24% | 0 to 24% | – | – | – | –
COC(=O)c1c(OC)nc(C(F)(F)Cl)c(C(=O)OC)c1CC(C)C [Compound 30, 3,5-pyridinedicarboxylic acid, 2-(chlorodifluoromethyl)-6-methoxy-4-(2-methylpropyl)-, dimethyl ester] | 75 to 100% | 75 to 100% | 75 to 100% | 75 to 100% | 75 to 100% | – | – | – | plant injury rating, Colq ([6]; 0.5605 kg/ha): 0; plant injury rating, Colq ([6]; 1.1210 kg/ha): 0; plant injury rating, Colq ([6]; 2.8025 kg/ha): 1; plant injury rating, Colq ([6]; 5.6050 kg/ha): 1; plant injury rating, Colq ([6]; 8.4075 kg/ha): 1; plant injury rating, Colq ([6]; 11.2100 kg/ha): 2; plant injury rating, Pesw ([7]; 0.5605 kg/ha): 0; plant injury rating, Pesw ([7]; 1.1210 kg/ha): 0; plant injury rating, Pesw ([7]; 2.8025 kg/ha): 1; plant injury rating, Pesw ([7]; 5.6050 kg/ha): 1; plant injury rating, Pesw ([7]; 8.4075 kg/ha): 1; plant injury rating, Pesw ([7]; 11.2100 kg/ha): 1; plant injury rating, Sube ([8]; 0.5605 kg/ha): 0; plant injury rating, Sube ([8]; 1.1210 kg/ha): 1; plant injury rating, Sube ([8]; 2.8025 kg/ha): 1; plant injury rating, Sube ([8]; 5.6050 kg/ha): 1; plant injury rating, Sube ([8]; 8.4075 kg/ha): 1; plant injury rating, Sube ([8]; 11.2100 kg/ha): 1
COC(=O)c1c(OC)nc(C(F)(F)F)c(C2=NCCS2)c1CC(C)C [Compound 50, 3-pyridinecarboxylic acid, 5-(4,5-dihydro-2-thiazolyl)-2-methoxy-4-(2-methylpropyl)-6-(trifluoromethyl)-, methyl ester] | 75 to 100% | 75 to 100% | 75 to 100% | 75 to 100% | 75 to 100% | – | – | – | –
COC(=O)c1c(OC)nc(C(F)(F)F)c(N=CSC)c1CC(C)C [Compound 77, 3-pyridinecarboxylic acid, 2-methoxy-4-(2-methylpropyl)-5-[[(methylthio)methylene]amino]-6-(trifluoromethyl)-, methyl ester] | 75 to 100% | 75 to 100% | 75 to 100% | 75 to 100% | 75 to 100% | – | – | – | plant injury rating, Colq ([6]; 1.1210 kg/ha): 3 and 2; plant injury rating, Colq ([6]; 2.8025 kg/ha): 3 and 2; plant injury rating, Colq ([6]; 5.6050 kg/ha): 2 and 3; plant injury rating, Colq ([6]; 11.2100 kg/ha): 2 and 3; plant injury rating, Pesw ([7]; 1.1210 kg/ha): 0; plant injury rating, Pesw ([7]; 2.8025 kg/ha): 0; plant injury rating, Pesw ([7]; 5.6050 kg/ha): 0; plant injury rating, Pesw ([7]; 11.2100 kg/ha): 2 and 1; plant injury rating, Sube ([8]; 1.1210 kg/ha): 1; plant injury rating, Sube ([8]; 2.8025 kg/ha): 2; plant injury rating, Sube ([8]; 5.6050 kg/ha): 2 and 1; plant injury rating, Sube ([8]; 11.2100 kg/ha): 2
COC(=O)c1c(OC)nc(C(F)(F)F)c(C(=O)Cl)c1CC1CC1 [Compound 113, 3-pyridinecarboxylic acid, 5-(chlorocarbonyl)-4-(cyclopropylmethyl)-2-methoxy-6-(trifluoromethyl)-, methyl ester] | – | – | – | – | – | 0 | 0 | – | –
COC(=O)c1c(OC)nc(C(F)(F)F)c(C(=O)n2cccn2)c1CC1CC1 [Compound 116, 3-pyridinecarboxylic acid, 4-(cyclopropylmethyl)-2-methoxy-5-(1H-pyrazo1-1-ylcarbonyl)-6-(trifluoromethyl)-, methyl ester] | – | – | – | – | – | 1 | 2 | 2 | plant injury rating, Cocw ([9]; 0.0701 kg/ha): 0
COC(=O)c1c(OC)nc(C(F)(F)F)c(C(=O)SC)c1C1CCC1 [Compound 137, 3-pyridinecarboxylic acid, 4-cyclobuty1-2-methoxy-5-[(methylthio)carbonyl]-6-(trifluoromethyl)-, methyl ester] | – | – | – | – | – | 2 | 3 | 3 | –
COC(=O)c1c(OC)nc(C(F)(F)F)c(C(=O)n2ccc(F)n2)c1C1CCC1 [Compound 140, 3-pyridinecarboxylic acid, 4-cyclobuty1-5-[(3-fluoro-1H-pyrazo1-1-yl)carbonyl]-2-methoxy-6-(trifluoromethyl)-, methyl ester] | – | – | – | – | – | 2 | 3 | 2 | –

Reference: patent publication US5391540A, “Substituted pyridine compounds” (Rohm and Haas Company, priority 1993, dated 1995)
